Structures can show the parent of a compound that is named as a salt.

T1 sequence (Q96P20 whole entry): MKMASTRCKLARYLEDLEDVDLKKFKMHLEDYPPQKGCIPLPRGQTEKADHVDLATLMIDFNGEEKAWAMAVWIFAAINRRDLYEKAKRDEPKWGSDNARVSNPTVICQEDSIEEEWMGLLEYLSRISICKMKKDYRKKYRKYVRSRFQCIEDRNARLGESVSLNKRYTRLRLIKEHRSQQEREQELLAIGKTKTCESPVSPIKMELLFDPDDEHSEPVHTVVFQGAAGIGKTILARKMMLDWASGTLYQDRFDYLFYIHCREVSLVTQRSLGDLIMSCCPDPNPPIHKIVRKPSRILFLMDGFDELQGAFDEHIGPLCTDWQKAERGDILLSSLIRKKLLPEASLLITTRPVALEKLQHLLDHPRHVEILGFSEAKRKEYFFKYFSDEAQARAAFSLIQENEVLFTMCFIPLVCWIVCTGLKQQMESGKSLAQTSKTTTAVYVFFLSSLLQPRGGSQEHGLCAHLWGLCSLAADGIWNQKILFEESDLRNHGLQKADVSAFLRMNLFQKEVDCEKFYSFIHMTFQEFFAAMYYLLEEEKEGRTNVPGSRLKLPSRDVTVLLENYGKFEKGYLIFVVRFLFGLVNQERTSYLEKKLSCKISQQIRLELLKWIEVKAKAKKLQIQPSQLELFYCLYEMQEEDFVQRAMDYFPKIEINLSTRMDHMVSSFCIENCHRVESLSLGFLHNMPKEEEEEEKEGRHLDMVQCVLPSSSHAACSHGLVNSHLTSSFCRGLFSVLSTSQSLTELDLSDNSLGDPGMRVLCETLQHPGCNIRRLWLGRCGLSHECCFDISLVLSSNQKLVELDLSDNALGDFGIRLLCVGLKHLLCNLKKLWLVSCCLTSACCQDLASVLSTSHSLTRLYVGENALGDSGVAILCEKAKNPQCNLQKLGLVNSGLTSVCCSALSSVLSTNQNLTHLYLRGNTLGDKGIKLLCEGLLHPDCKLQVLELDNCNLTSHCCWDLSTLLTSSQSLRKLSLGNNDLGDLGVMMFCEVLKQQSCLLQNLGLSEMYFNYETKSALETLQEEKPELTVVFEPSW

The target of the first experiment is T1, NLRP3 (Homo sapiens, UniProt Q96P20). Nature of the experiment: THP-1 cells pyroptosis assay (LPS + nigericin, resazurin readout). It is filed as cell-based. More on the design: Seed THP-1 cells (25,000 cells/well) containing 1.0 μg/ml LPS in 40 μl of RPMI medium; host or cells: THP-1 cells, LPS-primed and nigericin-stimulated. As to conditions: NLRP3 inhibitory activity in THP-1 cells, 1.0 μg/ml LPS, 5 μM nigericin. The source says:
It is well established that the activation of NLRP3 leads to cell pyroptosis and this feature plays an important part in the manifestation of clinical disease (Yan-gang Liu et al., Cell Death & Disease, 2017, 8(2), e2579; Alexander Wree et al., Hepatology, 2014, 59(3), 898-910; Alex Baldwin et al., Journal of Medicinal Chemistry, 2016, 59(5), 1691-1710; Ema Ozaki et al., Journal of Inflammation Research, 2015, 8, 15-27; Zhen Xie & Gang Zhao, Neuroimmunology Neuroinflammation, 2014, 1(2), 60-65; Mattia Cocco et al., Journal of Medicinal Chemistry, 2014, 57(24), 10366-10382; T. Satoh et al., Cell Death & Disease, 2013, 4, e644). Therefore, it is anticipated that inhibitors of NLRP3 will block pyroptosis, as well as the release of pro-inflammatory cytokines (e.g. IL-1β) from the cell. THP-1 cells (ATCC # TIB-202) were grown in RPMI containing L-glutamine (Gibco #11835) supplemented with 1 mM sodium pyruvate (Sigma # S8636) and penicillin (100 units/ml)/streptomycin (0.1 mg/ml) (Sigma # P4333) in 10% Fetal Bovine Serum (FBS) (Sigma # F0804). The cells were routinely passaged and grown to confluency (˜10^6 cells/ml). On the day of the experiment, THP-1 cells were harvested and resuspended into RPMI medium (without FBS). The cells were then counted and viability (>90%) checked by Trypan blue (Sigma # T8154). Appropriate dilutions were made to give a concentration of 625,000 cells/ml. To this diluted cell solution was added LPS (Sigma # L4524) to give a […] Final Assay Concentration (FAC). 40 μl of the final preparation was aliquoted into each well of a 96-well plate. The plate thus prepared was used for compound screening. The following method step-by-step assay was followed for compound screening. • 1. Seed THP-1 cells (25,000 cells/well) containing 1.0 μg/ml LPS in 40 μl of RPMI medium (without FBS) in 96-well, black walled, clear bottom cell culture plates coated with poly-D-lysine (VWR #734-0317) • 2. Add 5 μl compound (8 points half-log dilution, with 10 μM top dose) or vehicle (DMSO 0.1% FAC) to the appropriate wells • 3. […] Add 5 μl nigericin (Sigma # N7143) (FAC 5 μM) to all wells • 5. […] At the end of the incubation period, spin plates at 300×g for 3 mins and remove supernatant • 7. Then add 50 μl of resazurin (Sigma # R7017) (FAC 100 μM resazurin in RPMI medium without FBS) and incubate plates for a further 1-2 hrs at 37° C. and 5% CO2 • 8. Plates were read in an Envision reader at Ex 560 nm and Em 590 nm • 9. IC50 data is fitted to a non-linear regression equation (log inhibitor vs response-variable slope 4-parameters) The results of the pyroptosis assay performed are summarised in Table 1 below as THP IC50.
(In general: Resazurin is reduced to fluorescent resorufin, in cell work by metabolically active cells.)
Broadly, the IC50 is the concentration that inhibits the measured activity by half. As to `CN(C)C1CCN(CCCS(=O)(=O)NC(=O)Nc2c3c(cc4c2CCC4)CCC3)CC1` [Example 2, 3-(4-(Dimethylamino)piperidin-1-yl)-N-((1,2,3,5,6,7-hexahydro-s-indacen-4-yl)carbamoyl)propane-1-sulfonamide, potassium salt], the half-maximal inhibitory concentration (IC50) was in the range of 2000 to 10000 nM. The same measure, in the same setting: under `CC(=O)NCCS(=O)(=O)NC(=O)Nc1c2c(cc3c1CCC3)CCC2` [Example 6, N-(2-(N-((1,2,3,5,6,7-Hexahydro-s-indacen-4-yl)carbamoyl)sulfamoyl)ethyl)acetamide, Potassium Salt] stands 2000 to 10000 nM; under `O=C(Nc1c2c(cc3c1CCC3)CCC2)NS(=O)(=O)CCCCN1CCOCC1` [Example 9, N-((1,2,3,5,6,7-Hexahydro-s-indacen-4-yl)carbamoyl)-4-morpholinobutane-1-sulfonamide, Potassium Salt], 2000 to 10000 nM; under `O=C(Nc1c2c(cc3c1CCC3)CCC2)NS(=O)(=O)CCCN1CCOCC1` [Example 15, N-((1,2,3,5,6,7-Hexahydro-s-indacen-4-yl)carbamoyl)-3-morpholinopropane-1-sulfonamide, Potassium Salt], 1600 to 2000 nM.

As for `O=C(Nc1c2c(cc3c1CCC3)CCC2)NS(=O)(=O)CCCN1CCCCC1` [Example 16, N-((1,2,3,5,6,7-Hexahydro-s-indacen-4-yl)carbamoyl)-3-(piperidin-1-yl)propane-1-sulfonamide, Potassium Salt], the IC50 fell in the range of 1600 to 2000 nM.

As to `CCN(CC)CCS(=O)(=O)NC(=O)Nc1c2c(cc3c1CCC3)CCC2` [Example 18, 2-(Diethylamino)-N-((1,2,3,5,6,7-hexahydro-s-indacen-4-yl)carbamoyl)ethane-1-sulfonamide, potassium salt], the IC50 was 2000 to 10000 nM.

On to `CN1CCC(CS(=O)(=O)NC(=O)Nc2c3c(cc4c2CCC4)CCC3)CC1` [Example 22, N-((1,2,3,5,6,7-Hexahydro-s-indacen-4-yl)carbamoyl)-1-(1-methylpiperidin-4-yl)methanesulfonamide, Potassium Salt], for which the IC50 was in the range of 2000 to 10000 nM. The same measure, in the same setting: under `CC(C)N1CCC(CS(=O)(=O)NC(=O)Nc2c3c(cc4c2CCC4)CCC3)C1` (stereo not shown) [Example 25, N-((1,2,3,5,6,7-Hexahydro-s-indacen-4-yl)carbamoyl)-1-(1-isopropylpyrrolidin-3-yl)methanesulfonamide, Potassium Salt] stands 2000 to 10000 nM; under `CC(CN(C)C)S(=O)(=O)NC(=O)Nc1c2c(cc3c1CCC3)CCC2` (stereo not shown) [Example 26, 1-(Dimethylamino)-N-((1,2,3,5,6,7-hexahydro-s-indacen-4-yl)carbamoyl)propane-2-sulfonamide, potassium salt], 2000 to 10000 nM.

As for `CCN1CC2(CC(S(=O)(=O)NC(=O)Nc3c4c(cc5c3CCC5)CCC4)C2)C1` [Example 38, 2-Ethyl-N-((1,2,3,5,6,7-hexahydro-s-indacen-4-yl)carbamoyl)-2-azaspiro[3.3]heptane-6-sulfonamide, potassium salt], the IC50 was in the range of 2000 to 10000 nM.

As to `CC(C)N1CC2(CC(S(=O)(=O)NC(=O)Nc3c4c(cc5c3CCC5)CCC4)C2)C1` [Example 39, N-((1,2,3,5,6,7-Hexahydro-s-indacen-4-yl)carbamoyl)-2-isopropyl-2-azaspiro[3.3]heptane-6-sulfonamide, potassium salt], the IC50 was 2000 to 10000 nM.

For the next experiment, the target named is T1, NLRP3. The experiment can be described thus: Human whole blood IL1β release assay (LPS + nigericin, AlphaLisa IL-1β). The format is cell-based. The arrangement: Plate out 80 μl of whole blood containing 1βg/ml of LPS in 96-well, clear bottom cell culture plate; from tissue; host or cells: human whole blood from healthy donors, LPS-primed and nigericin-stimulated. To be noted: NLRP3 inhibitory activity in human whole blood, IL-1β release, 10 μM nigericin, read-out: HWB IC50. The method, then: For systemic delivery, the ability to inhibit NLRP3 when the compounds are present within the bloodstream is of great importance. For this reason, the NLRP3 inhibitory activity of a number of compounds in human whole blood was investigated in accordance with the following protocol.
Human whole blood in Li-heparin tubes was obtained from healthy donors from a volunteer donor panel. • 1. Plate out 80 μl of whole blood containing 1βg/ml of LPS in 96-well, clear bottom cell culture plate (Corning #3585) • 2. Add 10 μl compound (8 points half-log dilution with 10 μM top dose) or vehicle (DMSO 0.1% FAC) to the appropriate wells • 3. Incubate for 3 hrs at 37° C., 5% CO2 • 4. Add 10 μl Nigericin (Sigma # N7143) (10 μM FAC) to all wells • 5. Incubate for 1 hr at 37° C., 5% CO2 • 6. At the end of the incubation period, spin plates at 300×g for 5 mins to pellet cells and remove 20 μl of supernatant and add to 96-well v-bottom plates for IL-1β analysis (note: these plates containing the supernatants can be stored at −80° C. to be analysed at a later date) • 7. IL-1β was measured according to the manufacturer protocol (Perkin Elmer-AlphaLisa IL-1 Kit AL220F-5000) • 8. IC50 data is fitted to a non-linear regression equation (log inhibitor vs response-variable slope 4-parameters)
Background: In Alpha technology, singlet oxygen from a donor bead excites a nearby acceptor bead.
Regarding `CC(C)C(=O)N(C)CCCS(=O)(=O)NC(=O)Nc1c2c(cc3c1CCC3)CCC2` [Example 95, N-(3-(N-((1,2,3,5,6,7-Hexahydro-s-indacen-4-yl)carbamoyl)sulfamoyl)propyl)-N-methylisobutyramide], the IC50 was at most 5000 nM. For the compound `CN(C)C(=O)CCS(=O)(=O)NC(=O)Nc1c2c(cc3c1CCC3)CCC2` [Example 97, 3-(N-((1,2,3,5,6,7-Hexahydro-s-indacen-4-yl)carbamoyl)sulfamoyl)-N,N-dimethylpropanamide], the IC50 is at most 7500 nM.

As to `CC1(C)CCN1CCS(=O)(=O)NC(=O)Nc1c2c(cc3c1CCC3)CCC2` [Example 102, 2-(2,2-Dimethylazetidin-1-yl)-N-((1,2,3,5,6,7-hexahydro-s-indacen-4-yl)carbamoyl)ethane-1-sulfonamide], the IC50 is at most 1000 nM. The same measure, in the same setting: under `CC1CC(C)N1CCS(=O)(=O)NC(=O)Nc1c2c(cc3c1CCC3)CCC2` (stereo not shown) [Example 103, 2-(2,4-Dimethylazetidin-1-yl)-N-((1,2,3,5,6,7-hexahydro-s-indacen-4-yl)carbamoyl)ethane-1-sulfonamide] stands at most 1000 nM; under `CC(C)C1CCN1CCS(=O)(=O)NC(=O)Nc1c2c(cc3c1CCC3)CCC2` (stereo not shown) [Example 104, N-((1,2,3,5,6,7-Hexahydro-s-indacen-4-yl)carbamoyl)-2-(2-isopropylazetidin-1-yl)ethane-1-sulfonamide], at most 1000 nM. In the case of `CN1CCCC1CS(=O)(=O)NC(=O)Nc1c2c(cc3c1CCC3)CCC2` (stereo not shown) [Example 105, N-((1,2,3,5,6,7-Hexahydro-s-indacen-4-yl)carbamoyl)-1-(1-methylpyrrolidin-2-yl)methanesulfonamide], the IC50 is at most 1000 nM. With `CCN1CCCC1CS(=O)(=O)NC(=O)Nc1c2c(cc3c1CCC3)CCC2` (stereo not shown) [Example 106, 1-(1-Ethylpyrrolidin-2-yl)-N-((1,2,3,5,6,7-hexahydro-s-indacen-4-yl)carbamoyl)methanesulfonamide], the IC50 was at most 1000 nM. `CC(C)N1CCCC1CS(=O)(=O)NC(=O)Nc1c2c(cc3c1CCC3)CCC2` (stereo not shown) [Example 107, N-((1,2,3,5,6,7-Hexahydro-s-indacen-4-yl)carbamoyl)-1-(1-isopropylpyrrolidin-2-yl)methanesulfonamide]: the IC50 was at most 1000 nM. On the same count and under the same terms, under `CC(C)N1CCCCC1CS(=O)(=O)NC(=O)Nc1c2c(cc3c1CCC3)CCC2` (stereo not shown) [Example 109, N-((1,2,3,5,6,7-Hexahydro-s-indacen-4-yl)carbamoyl)-1-(1-isopropylpiperidin-2-yl)methanesulfonamide] stands at most 1000 nM; under `CCN1CCCCC1CS(=O)(=O)NC(=O)Nc1c2c(cc3c1CCC3)CCC2` (stereo not shown) [Example 110, 1-(1-Ethylpiperidin-2-yl)-N-((1,2,3,5,6,7-hexahydro-s-indacen-4-yl)carbamoyl)methanesulfonamide], at most 1000 nM; under `CC(C)n1ccc(CS(=O)(=O)NC(=O)Nc2c3c(cc4c2CCC4)CCC3)n1` [Example 111, N-((1,2,3,5,6,7-Hexahydro-s-indacen-4-yl)carbamoyl)-1-(1-isopropyl-1H-pyrazol-3-yl)methanesulfonamide], at most 7500 nM.

The values above are taken from patent US20200331850A1, “NOVEL SULFONAMIDE CARBOXAMIDE COMPOUNDS” (Inflazome Limited, priority 2017, published 2020).
